Active and inactive are the calls of the source.
Assays:
[1] = target: Kallikrein-7 (Homo sapiens, UniProt P49862); assay: Fluorescence Intensity-based biochemical primary high throughput dose response assay to identify activators of kallikrein-7 (K7) zymogen.
[2] = loss of viability in HepG2 cells – cell-based, CellTiter-Glo, cherry-picked, cytotoxicity control for Shn3 inhibitor project, dose response (AID 624134); type: functional
[3] = system: HEK293; assay: cells; type: functional, cell-based; settings: Homo sapiens
[4] = system: HEK293; assay: inhibition of NOD1-driven NF-kB reporter – cell-based, luminescence, uHTS, primary screen (AID 1578); type: functional; settings: Homo sapiens
[5] = reduction of Shn3 3'UTR-driven luciferase in osteoblasts – cell-based, Clone20 osteoblasts, firefly luciferase, cherry-picked, dose response (AID 624132); type: functional;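 also: firefly luciferase luminescence from reporter carrying the Shn3 3'UTR in osteoblasts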
[6] = Shn3 3'UTR reporter signal decrease – cell-based, Clone20 osteoblasts, firefly luciferase, cherry-pick, set 2, Schnurri-3 inhibitor project, dose response (AID 720490); type: functional;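 also: actives lower the luminescence signal as inhibitors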
[7] = system: HEK293; assay: cells; settings: Homo sapiens
[8] = system: HEK293; assay: cells; type: functional, cell-based; settings: Homo sapiens; remark: listed apart in the source
[9] = EF1alpha-driven Renilla reporter with control 3'UTR suppression – Clone20-Shn3RL cells, dual-Glo, cherry-pick, set 2, counter-screen for Shn3 3'UTR targeting project, dose response (AID 720724); type: functional, cell-based; settings: Dual-Go Shn3RL
[10] = target: T1, Nucleotide-binding oligomerization domain-containing protein 1 (Homo sapiens, UniProt Q9Y239); assay: blockers of NOD1 pathway activity – revised, SAR follow-up (AID 2333); type: functional
T1 sequence (Q9Y239 whole entry): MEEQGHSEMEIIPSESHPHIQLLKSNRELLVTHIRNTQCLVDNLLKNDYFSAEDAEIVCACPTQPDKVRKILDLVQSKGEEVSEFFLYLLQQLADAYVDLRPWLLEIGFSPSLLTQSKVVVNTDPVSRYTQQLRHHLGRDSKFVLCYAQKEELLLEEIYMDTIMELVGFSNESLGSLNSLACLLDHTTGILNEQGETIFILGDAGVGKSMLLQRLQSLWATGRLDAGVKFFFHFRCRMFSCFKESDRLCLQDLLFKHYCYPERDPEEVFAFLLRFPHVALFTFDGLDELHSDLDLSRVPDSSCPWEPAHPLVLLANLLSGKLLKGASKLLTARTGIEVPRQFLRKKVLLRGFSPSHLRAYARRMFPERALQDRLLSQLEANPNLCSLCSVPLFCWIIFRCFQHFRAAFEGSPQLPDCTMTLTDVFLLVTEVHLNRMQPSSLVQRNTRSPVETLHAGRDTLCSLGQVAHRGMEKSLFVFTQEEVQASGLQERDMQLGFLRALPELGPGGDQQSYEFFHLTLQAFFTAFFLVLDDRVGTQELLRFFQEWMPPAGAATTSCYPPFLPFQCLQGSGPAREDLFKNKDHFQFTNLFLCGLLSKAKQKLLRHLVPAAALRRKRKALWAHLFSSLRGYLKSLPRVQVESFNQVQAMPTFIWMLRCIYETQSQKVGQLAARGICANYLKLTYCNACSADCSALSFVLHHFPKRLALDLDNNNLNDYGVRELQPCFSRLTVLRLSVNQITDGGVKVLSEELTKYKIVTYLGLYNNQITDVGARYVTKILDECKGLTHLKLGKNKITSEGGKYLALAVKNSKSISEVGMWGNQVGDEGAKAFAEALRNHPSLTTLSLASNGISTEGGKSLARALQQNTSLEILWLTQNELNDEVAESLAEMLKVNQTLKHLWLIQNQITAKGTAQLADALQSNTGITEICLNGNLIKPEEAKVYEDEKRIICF

[11] = non-specific 3'UTR reporter inhibition in Clone20-Shn3RL – cell-based, Renilla luciferase, cherry-picked, counter-screen for Shn3 inhibitor project, dose response (AID 624133); type: functional
[12] = target: Tumor necrosis factor (Homo sapiens, UniProt P01375); assay: analog potency on TNFa NF-kB signaling – cell-based, revised, SAR follow-up (AID 2337); type: functional
[13] = system: HEK293; assay: NOD2 signaling inhibitors in MDP-stimulated cells, cell-based, uHTS, luminescence (AID 2001); type: functional; settings: Homo sapiens
[14] = target: T2, Estrogen receptor beta (Homo sapiens, UniProt Q92731);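 also: recombinant ER-beta bound to coactivator SRC1 peptide in presence of estradiol agonist; inhibitors block coactivator peptide binding and lower the FRET signal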
[15] = target: Prothrombin (Homo sapiens, UniProt P00734); assay: Thrombin 1536 HTS Dose Response Confirmation. [Related pubchem assays: 1046 (Thrombin 1536 HTS; hits were confirmed in this assay)]; type: functional
[16] = viability loss in MITF-independent A375 cells – cell-based, CellTiter-Glo luminescence, dry powder, set 2, counter-screen for MITF inhibitor project, dose response (AID 624489); type: functional; settings: A-375;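 also: actives are compounds lowering A375 viability meaning general cytotoxicity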
[17] = cytotoxicity in MITF-independent A375 cells – cell-based, CellTiter-Glo luminescence, dry powder, set 4, counter-screen for MITF inhibitor project, dose response (AID 624364); type: functional; settings: A-375;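 also: A375 melanoma cells are MITF independent so this is a counter screen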
[18] = target: E3 ubiquitin-protein ligase UHRF1 (Homo sapiens, UniProt Q96T88); assay: Counterscreen for inhibitors of 5-meCpG-binding domain protein 2 (MBD2): TRFRET-based biochemical high throughput dose response assay to identify inhibitors of binding of ubiquitin-like with PHD and ring finger domains 1 (UHRF1) to methylated oligonucleotide.
[19] = target: T3, Carboxy-terminal domain RNA polymerase II polypeptide A small phosphatase 1 (Homo sapiens, UniProt Q9GZU7); assay: CTDSP1 inhibitors, concentration-response, biochemical, absorbance readout, ultra-high-throughput screen actives (AID 540297); type: functional
T3 sequence (Q9GZU7 whole entry): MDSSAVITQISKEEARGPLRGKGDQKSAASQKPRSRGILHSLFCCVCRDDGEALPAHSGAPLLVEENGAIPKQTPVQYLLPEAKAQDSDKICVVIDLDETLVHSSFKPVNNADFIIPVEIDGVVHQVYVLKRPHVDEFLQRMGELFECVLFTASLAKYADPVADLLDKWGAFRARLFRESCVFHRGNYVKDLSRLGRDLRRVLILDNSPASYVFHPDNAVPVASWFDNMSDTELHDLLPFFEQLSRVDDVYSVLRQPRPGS

[20] = target: T4, DNA repair protein RAD52 homolog (Homo sapiens, UniProt P43351); type: functional, biochemical
T4 sequence (P43351 whole entry): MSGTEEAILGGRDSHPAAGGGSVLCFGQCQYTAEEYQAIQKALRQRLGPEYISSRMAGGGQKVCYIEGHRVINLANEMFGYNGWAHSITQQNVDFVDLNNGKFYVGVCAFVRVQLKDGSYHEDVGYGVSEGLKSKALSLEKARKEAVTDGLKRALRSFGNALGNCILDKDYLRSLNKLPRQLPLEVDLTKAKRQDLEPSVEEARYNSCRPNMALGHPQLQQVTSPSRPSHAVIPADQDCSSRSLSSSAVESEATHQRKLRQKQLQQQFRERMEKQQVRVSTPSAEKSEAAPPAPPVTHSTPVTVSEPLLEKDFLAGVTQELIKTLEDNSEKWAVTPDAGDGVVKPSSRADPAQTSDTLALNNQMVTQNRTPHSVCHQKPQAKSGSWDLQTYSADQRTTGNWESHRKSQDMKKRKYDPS

[21] = viability loss in Vero cells – cytotoxicity control for Vif-APOBEC3G degradation inhibitor project, dose response (AID 1117358); type: functional; settings: Vero
[22] = target: Induced myeloid leukemia cell differentiation protein Mcl-1 (Homo sapiens, UniProt Q07820); type: functional
[23] = viability of HCT116 lacking mutant beta-catenin – cell-based, human colon tumor, dose response (AID 1045); type: functional;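 also: HCT116 colon tumor cells with beta catenin knocked out; cells exposed to compound for 60 hours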
[24] = viability of PTEN-deleted HCT116 cells – cell-based, HCT116 PTEN knockout, dose response (AID 1047); type: functional;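 also: HCT116 colon tumor cells with PTEN knocked out; cells exposed to compound for 60 hours before readout; potency for loss of cell viability measured by luminescence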
[25] = target: T5, Protein Tat (Human immunodeficiency virus type 1 group M subtype B (isolate HXB2)(HIV-1), UniProt P04608); type: functional;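 also: tat binding to TAR RNA read out by fluorescence polarization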
T5 sequence (P04608 whole entry): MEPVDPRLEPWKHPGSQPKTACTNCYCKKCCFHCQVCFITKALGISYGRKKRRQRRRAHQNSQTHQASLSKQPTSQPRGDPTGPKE

[26] = target: T6, Potassium channel subfamily K member 9 (Homo sapiens, UniProt Q9NPC2); assay: TASK3 channel blockers, electrophysiology – cell-based, automated electrophysiology, selectivity assay for TASK1 (KCNK3) inhibitor project, SAR follow-up (AID 652210); type: functional
[27] = target: Potassium channel subfamily K member 3 (Rattus norvegicus, UniProt O54912); assay: SAR analysis for the identification of selective inhibitors of the two-pore domain potassium channel TASK1(KCNK3):Automated Electrophysiology.; type: functional
[28] = target: T6, Potassium channel subfamily K member 9; assay: KCNK9 flux blockade, concentration-response – cell-based, FluxOR thallium flux, selectivity assay for TASK1 inhibitor project, SAR follow-up (AID 652211); type: functional;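 also: potency is for inhibitors of the channel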
[29] = system: P388; assay: cells; type: functional; settings: Mus musculus
[30] = system: SN12K1; assay: cells; type: functional; settings: Homo sapiens
[31] = rise of 4N DNA cells, HeLa – IC50, dose response (AID 1117351); type: functional, cell-based
[32] = rise of 2N DNA cells, HeLa – IC50, dose response (AID 1117349); type: functional, cell-based
[33] = system: P388/ADR; assay: cells; type: functional; settings: Mus musculus
[34] = target: T2, Estrogen receptor beta; assay: blockers of SRC-3 recruitment to ERβ – biochemical, ELISA, streptavidin-HRP readout, orthogonal assay, confirmation (AID 1060)
[35] = Potency on glucagon-like peptide 1 release, dose-response in NCI-H716 cell line, half maximal inhibitory concentration (AID 1117344); type: functional, cell-based
[36] = glucagon-like peptide-1 release potency in STC-1, concentration-response, half-maximal inhibitory concentration in the STC-1 line (AID 1117345); type: functional, cell-based
[37] = target: T7, Fibrinogen beta chain (Homo sapiens, UniProt P02675); assay: Fluorescence polarization-based biochemical high throughput dose response assay to identify inhibitors that disrupt the binding of a cyclic peptide (Tn7) to the fibrin proteolytic product D-Dimer and fragment E complex [DD(E )].
T7 sequence (P02675 whole entry): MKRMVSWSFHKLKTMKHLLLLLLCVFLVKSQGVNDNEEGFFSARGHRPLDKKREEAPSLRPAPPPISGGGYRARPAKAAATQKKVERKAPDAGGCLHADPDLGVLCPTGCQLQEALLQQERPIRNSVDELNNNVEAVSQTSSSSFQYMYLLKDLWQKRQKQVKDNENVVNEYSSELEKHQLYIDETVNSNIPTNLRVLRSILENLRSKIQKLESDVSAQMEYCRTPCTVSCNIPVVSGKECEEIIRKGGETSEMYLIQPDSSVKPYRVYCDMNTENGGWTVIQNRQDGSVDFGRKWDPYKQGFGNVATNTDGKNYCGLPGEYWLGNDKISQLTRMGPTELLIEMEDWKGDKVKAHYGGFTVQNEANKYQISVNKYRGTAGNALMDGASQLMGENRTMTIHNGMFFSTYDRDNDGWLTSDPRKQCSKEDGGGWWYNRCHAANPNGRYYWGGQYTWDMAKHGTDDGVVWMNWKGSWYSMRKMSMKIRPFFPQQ

[38] = target: T7, Fibrinogen beta chain; assay: Fluorescence polarization-based biochemical high throughput dose response assay to identify inhibitors that disrupt the binding of a cyclic peptide (Tn6) to the fibrin proteolytic product D-Dimer and fragment E complex [DD(E )].

T2 sequence (Q92731 whole entry): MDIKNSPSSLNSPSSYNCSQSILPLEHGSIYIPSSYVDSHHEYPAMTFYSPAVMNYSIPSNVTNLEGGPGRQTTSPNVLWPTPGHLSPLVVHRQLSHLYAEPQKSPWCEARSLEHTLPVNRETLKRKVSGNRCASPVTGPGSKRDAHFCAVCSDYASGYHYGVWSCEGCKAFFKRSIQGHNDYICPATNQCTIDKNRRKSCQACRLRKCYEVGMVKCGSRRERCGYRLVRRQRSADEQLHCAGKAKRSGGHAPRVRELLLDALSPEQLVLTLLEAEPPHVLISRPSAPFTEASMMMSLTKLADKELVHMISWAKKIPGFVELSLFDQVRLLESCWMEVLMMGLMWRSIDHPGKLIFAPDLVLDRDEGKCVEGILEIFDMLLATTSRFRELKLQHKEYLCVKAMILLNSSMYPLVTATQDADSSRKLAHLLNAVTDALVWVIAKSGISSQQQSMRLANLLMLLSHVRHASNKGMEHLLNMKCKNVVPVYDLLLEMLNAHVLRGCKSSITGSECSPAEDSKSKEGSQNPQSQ
Chain of Kallikrein-7 (P49862 whole entry): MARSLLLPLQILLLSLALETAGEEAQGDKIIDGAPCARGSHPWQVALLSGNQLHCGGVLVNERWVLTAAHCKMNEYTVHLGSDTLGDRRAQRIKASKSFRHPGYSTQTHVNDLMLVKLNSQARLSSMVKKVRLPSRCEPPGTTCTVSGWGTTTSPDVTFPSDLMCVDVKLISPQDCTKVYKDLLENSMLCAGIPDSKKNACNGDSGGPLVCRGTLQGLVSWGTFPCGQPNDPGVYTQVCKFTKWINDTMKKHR
Chain of E3 ubiquitin-protein ligase UHRF1 (Q96T88 whole entry, the tested form may be a part): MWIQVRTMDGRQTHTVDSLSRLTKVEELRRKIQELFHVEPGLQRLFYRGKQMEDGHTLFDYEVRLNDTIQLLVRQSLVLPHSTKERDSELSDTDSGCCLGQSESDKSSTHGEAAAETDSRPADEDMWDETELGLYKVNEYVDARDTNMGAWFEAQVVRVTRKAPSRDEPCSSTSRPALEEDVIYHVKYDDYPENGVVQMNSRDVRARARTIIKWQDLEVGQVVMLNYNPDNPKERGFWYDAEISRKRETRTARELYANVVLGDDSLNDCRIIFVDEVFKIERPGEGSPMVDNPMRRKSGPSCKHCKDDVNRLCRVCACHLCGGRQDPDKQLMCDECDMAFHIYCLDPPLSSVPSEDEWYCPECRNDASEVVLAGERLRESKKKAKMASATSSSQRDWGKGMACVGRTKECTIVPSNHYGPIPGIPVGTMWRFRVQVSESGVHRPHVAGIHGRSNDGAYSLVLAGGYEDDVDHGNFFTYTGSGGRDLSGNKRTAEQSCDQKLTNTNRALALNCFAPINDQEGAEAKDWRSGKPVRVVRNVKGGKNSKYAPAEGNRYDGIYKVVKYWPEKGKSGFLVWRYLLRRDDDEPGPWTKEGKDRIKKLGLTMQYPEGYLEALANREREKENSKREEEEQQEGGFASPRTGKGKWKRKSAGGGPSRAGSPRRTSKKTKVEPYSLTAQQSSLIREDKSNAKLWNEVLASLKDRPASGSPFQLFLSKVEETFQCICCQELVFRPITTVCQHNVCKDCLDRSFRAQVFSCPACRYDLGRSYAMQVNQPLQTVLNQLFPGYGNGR
T6 sequence (Q9NPC2 whole entry, the tested form may be a part): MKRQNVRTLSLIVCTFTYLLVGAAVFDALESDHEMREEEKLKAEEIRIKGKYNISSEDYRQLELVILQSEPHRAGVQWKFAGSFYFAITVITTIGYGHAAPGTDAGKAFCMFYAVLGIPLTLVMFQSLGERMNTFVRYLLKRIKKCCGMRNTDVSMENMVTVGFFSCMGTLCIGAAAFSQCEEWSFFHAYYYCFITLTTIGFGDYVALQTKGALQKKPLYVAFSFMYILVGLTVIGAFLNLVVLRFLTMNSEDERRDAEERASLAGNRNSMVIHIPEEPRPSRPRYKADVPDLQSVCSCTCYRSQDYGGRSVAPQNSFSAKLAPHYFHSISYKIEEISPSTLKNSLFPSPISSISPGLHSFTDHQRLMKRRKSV
Chain of Induced myeloid leukemia cell differentiation protein Mcl-1 (Q07820 whole entry): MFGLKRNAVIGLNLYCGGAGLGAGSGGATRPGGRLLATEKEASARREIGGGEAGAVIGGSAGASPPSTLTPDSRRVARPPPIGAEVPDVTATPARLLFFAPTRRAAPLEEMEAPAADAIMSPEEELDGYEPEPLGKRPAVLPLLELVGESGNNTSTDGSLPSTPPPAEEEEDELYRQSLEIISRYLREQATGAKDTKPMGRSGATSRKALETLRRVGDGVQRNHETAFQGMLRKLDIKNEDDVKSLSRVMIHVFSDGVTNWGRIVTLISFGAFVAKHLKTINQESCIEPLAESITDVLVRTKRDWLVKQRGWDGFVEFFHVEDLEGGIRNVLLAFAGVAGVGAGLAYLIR
Chain of Potassium channel subfamily K member 3 (O54912 whole entry, the tested form may be a part): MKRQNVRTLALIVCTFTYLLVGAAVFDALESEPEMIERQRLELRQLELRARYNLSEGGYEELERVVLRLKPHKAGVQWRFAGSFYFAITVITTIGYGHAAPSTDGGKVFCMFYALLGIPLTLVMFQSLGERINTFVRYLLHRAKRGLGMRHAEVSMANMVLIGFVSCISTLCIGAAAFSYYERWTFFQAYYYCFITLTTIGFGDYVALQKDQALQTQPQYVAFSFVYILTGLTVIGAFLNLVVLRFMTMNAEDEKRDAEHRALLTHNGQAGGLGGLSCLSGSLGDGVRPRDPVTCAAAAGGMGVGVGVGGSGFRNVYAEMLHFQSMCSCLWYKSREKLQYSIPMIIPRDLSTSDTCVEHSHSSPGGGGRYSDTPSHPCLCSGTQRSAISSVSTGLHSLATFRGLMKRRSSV
Chain of Tumor necrosis factor (P01375 whole entry): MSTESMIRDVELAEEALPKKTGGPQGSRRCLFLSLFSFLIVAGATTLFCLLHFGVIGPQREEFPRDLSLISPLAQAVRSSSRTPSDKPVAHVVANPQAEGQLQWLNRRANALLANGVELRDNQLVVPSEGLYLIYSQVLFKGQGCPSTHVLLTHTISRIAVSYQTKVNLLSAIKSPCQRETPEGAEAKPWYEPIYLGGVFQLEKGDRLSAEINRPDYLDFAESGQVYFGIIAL

COCCCn1c(C(=O)NCCN2CCOCC2)cc2c(=O)n3cccc(C)c3nc21
EC50 [1]: > 69.5 µM (inactive)

c1ccc(CNc2ncnc3scc(-c4cccs4)c23)nc1
AC50 [2]: 67.1 µM (active)
IC50 [3]: 6 µM (active)
EC50 [4]: 3.58 µM (active)
AC50 [5]: 3.59 µM (active)
AC50 [6]: 3.71 µM (active)
IC50 [7]: 13.5 µM (active)
IC50 [8]: 19.8 µM (active)
AC50 [9]: 6.34 µM (active)
IC50 [10]: 2.69 µM (active)
AC50 [11]: 29.8 µM (active)
IC50 [12]: 3.22 µM (active)
IC50 [13]: 5.05 µM (active)

Cc1cccc(NC(=O)C2CCN(S(=O)(=O)c3c(C)nn(C)c3C)CC2)n1
IC50 [14]: > 50 µM (not active)

Cc1ccc(NC(=O)c2ccc(OC(=O)COc3cccc(Cl)c3)cc2)cc1
IC50 [15]: 596 nM (active)

COc1ccc(C2=C(NC(=O)c3ccc4ccccc4c3)C(=O)c3ccccc3C2=O)cc1
AC50 [16]: > 70 µM (inactive)
AC50 [17]: > 70 µM (inactive)

NC(=O)c1ccc(N/C=C2/C(=O)NC(=O)N(Cc3ccco3)C2=O)cc1
IC50 [18]: 31.3 µM (inactive)
IC50 [19]: 3.45 µM (active)

CN(C)CCNC(=O)c1cccc2[nH]c(-c3ccncc3)nc12
AC50 [20]: 10 µM (active)
IC50 [18]: 10.6 µM (inactive)

O=C1NC(=S)N/C1=C/c1ccc(-c2c(Br)cc([N+](=O)[O-])cc2Br)o1
CC50 [21]: > 40 µM (active)
IC50 [22]: 2.48 µM (active)
EC50 [23]: 35.2 µM (active)
EC50 [24]: 40.5 µM (active)
IC50 [25]: > 100 µM (active)

COc1cccc(C(=O)Nc2cccc(NC(=O)c3ccccc3)c2)c1
IC50 [26]: 420 nM (active)
IC50 [27]: 610 nM (active)
IC50 [28]: 25.9 µM (active)

CC(=O)Nc1ccc(S(=O)(=O)N2CCN(CCCOc3ccccc3Cl)CC2)cc1
CC50 [21]: > 40 µM (active)

COCCNC(=O)Cc1c(C)c2cc3c(cc2oc1=O)OC(C)(C)CC3
EC50 [1]: > 69.6 µM (inactive)

O=C(CCBr)N1CCN(C(=O)CCBr)CC1 [PIPOBROMAN]
GI50 [29]: 14.1 µM (inactive)
GI50 [30]: 65.3 µM (inactive)
IC50 [31]: > 10 µM (inactive)
IC50 [32]: > 10 µM (inactive)
GI50 [33]: 13.2 µM (inactive)

Cc1nn(-c2ccccc2)c(C)c1NC(=O)Cc1cccs1
IC50 [14]: 27.1 µM (active)
IC50 [34]: 61.1 nM (not active)

CC1=C(C(=O)OC(C)C)C(c2cccc([N+](=O)[O-])c2)C(C(=O)OC2CN(C(c3ccccc3)c3ccccc3)C2)=C(N)N1 (configuration not stated) [AZELNIDIPINE]
IC50 [35]: 12.8 µM (inactive)
IC50 [36]: 1.23 µM (active)

Cc1cc(C)c(S(=O)(=O)NCCn2c(C)cc3ccccc32)c(C)c1
IC50 [37]: > 83.3 µM (inactive)
IC50 [38]: 15.1 µM (inactive)
